Data from patent US5929236A, “2-substituted morpholine and thiomorpholine derivatives as GABA-B antagonists” (Schering Corporation, priority 1995, dated 1999).

Columns and labels:
[1] = test system: Respiratory Depressant Effect of Baclofen; experiment: Reversal of the Respiratory Depressant Effect of Baclofen via icv Administration; type: in vivo, guinea pig; details: 50 μg in 10 μl of vehicle, icv, 5 min before measurement of ventilation; mean ± SEM
Description: (§1) Animal Model for Respiratory Depression:
(§2) Place unanesthetized guinea pigs in a head-out plethysmograph and expose to a CO2 enriched gas mixture (10% CO2, 21% O2, 69% N2) for 10 min., (see Danko, et al., J. Pharm. Methods, 19, 165-173 (1988)). Plethysmograph pressure is detected with a transducer connected to a chart recorder. Minute ventilation is calculated as the product of tidal volume and respiratory frequency. The compound to be tested is administered orally, subcutaneously (sc), intraperitoneally (ip) or via an intracerebroventricular route (icv). Baclofen (3 mg/kg, sc) was given 30 min before exposure to the CO2 enriched gas. When given by the oral route, the compounds is administered 1, 3, 5 or 7 h before exposure to CO2 enriched gas. A 40 or 30 min. preteratment is used for the subcutaneous and intraperitoneal routes, respectively. The vehicle for oral, sc or ip administration is saline. For icv administration, single icv cannulae are placed in the lateral ventricle of anesthetized guinea pigs, (see McLeod, et al., Eur. J. Pharmacol., 209, 141-142 (1988)). The animals are allowed to recover approximately one week prior to use for ventilation experiments. The vehicle for icv administration is artificial cerebrospinal fluid (CSF).

[2] = test system: Respiratory Depressant Effect of Baclofen; experiment: Inhibition of Respiratory Depressant Effect of Baclofen; type: in vivo, guinea pig; details: for % Inhibition: mean ± SEM; for ED50: Cavia porcellus
Description: as §1
as §2, with “When given by the oral route, the compounds is administered 1, 3, 5 or 7 h before exposure to CO2 enriched gas.” left out

## CC1(C)COC(CC(=O)O)CN1 (single isomer, unassigned) [Example 6A]
[1]
  % Inhibition: 99 ± 23%
[2]; 0.3 mg/kg ip
  % Inhibition: 39 ± 10%
[2]; 0.3 mg/kg sc
  % Inhibition: 27 ± 6%
[2]; 1.0 mg/kg ip
  % Inhibition: 32 ± 7%
[2]; 1.0 mg/kg oral, 60 min prior to baclofen
  % Inhibition: 36 ± 13%
[2]; 1.0 mg/kg sc
  % Inhibition: 66 ± 7%
[2]; 3.0 mg/kg ip
  % Inhibition: 59 ± 7%
[2]; 3.0 mg/kg oral, 60 min prior to baclofen
  % Inhibition: 51 ± 13%
[2]; 3.0 mg/kg sc
  % Inhibition: 97 ± 25%
[2]; 10 mg/kg ip
  % Inhibition: 100 ± 9%
[2]; 10 mg/kg oral, 60 min prior to baclofen
  % Inhibition: 68 ± 13%
[2]; 10 mg/kg sc
  % Inhibition: 99 ± 11%
[2]; 30 mg/kg oral, 60 min prior to baclofen
  % Inhibition: 78 ± 29%
[2]; ip
  ED50: 1.9 mg/kg
[2]; sc
  ED50: 0.63 mg/kg
[2]; oral, 60 min prior to baclofen
  ED50: 3 mg/kg
